Experimental data published in US9814720B2, “Compositions and methods of inhibiting IL-17 expression of neutrophils” (priority 2014, dated 2017).

Experiments:
RORγt = RORγt nuclear translocation in IL-6/23-stimulated murine neutrophils (confocal imaging); assay type: cell-based, C57BL/6 mice; details: IL-6+IL-23 stimulated, inhibitor 20 μM, FIG. 4D
Excerpt: Total bone marrow-derived cells were isolated from mouse femurs and tibias by flushing with RPMI and an 18-gauge needle. Erythrocytes were lysed with 1× lysis buffer (eBioscience), and bone marrow cells were separated on a Percoll (Fisher) gradient by density centrifugation (52%, 69%, and 78%). Cells at the 69-78% interface were harvested, and neutrophil purity (>98%) confirmed by flow cytometry and Wright-Giemsa staining. Murine or human neutrophils were suspended at a density of 10^6 cells/ml and incubated with […] of recombinant mouse or human IL-6 and 2 μg/ml IL-23 in RPMI, and the cells were maintained for 1-3 h at 37° C. in 5% CO2. Various inhibitors were used for assessing STAT3 activation. […] For the determination of RORγt-dependent signaling, SR1001 (20 μM; Sigma) was used, which inhibits RORγt binding to the IL-17 promoter site. All inhibitors were added to neutrophils 2 h prior to recombinant IL-6 and IL-23 stimulation. Corneas were dissected and incubated for 1 h at 37° C. in collaganese (80 U/ml) (C0130; Sigma-Aldrich), and washed in FACS buffer (PBS+1% FBS+0.5% Sodium azide). Ten corneas were pooled and analyzed by intracellular flow cytometry. Conversely, bone marrow cells or neutrophils were collected as described above and washed in FACS buffer. […] Cells were analyzed using a C6 Accuri flow cytometer (BD). […]

IL-17RC = IL-17RC gene expression by qPCR in IL-6/23-stimulated human neutrophils; assay type: cell-based; details: IL-6/23 1 h, FIG. 6B
Experimental: Neutrophils were isolated from peripheral blood of healthy donors. Peripheral blood was incubated in 3% Dextran, and neutrophils isolated by Ficoll gradient centrifugation (Fisher Scientific), with neutrophil purity determined by staining with Wright-Giemsa.
Murine or human neutrophils were suspended at a density of 10^6 cells/ml and incubated with […] of recombinant mouse or human IL-6 and 2 μg/ml IL-23 in RPMI, and the cells were maintained for 1-3 h at 37° C. in 5% CO2. Various inhibitors were used for assessing STAT3 activation. For STAT3, neutrophils were treated with either the STAT3-SH2 inhibitor, Stattic (20 μM) obtained from Tocris, or the JAK-1, 2 inhibitor, INC424, (aka Ruxolitinib; 20 μM (Selleck BioChem)). For the determination of RORγt-dependent signaling, SR1001 (20 μM; Sigma) was used, which inhibits RORγt binding to the IL-17 promoter site. All inhibitors were added to neutrophils 2 h prior to recombinant IL-6 and IL-23 stimulation.
Neutrophil and corneal cell RNA was extracted using the RNeasy mini kit according to the manufacturer's directions (Qiagen, Valencia, Calif.). The quality of RNA was checked by spectrophotometry, and only samples with a 260/280 ratio of 2.0 were used to generate cDNA. The SuperScript First Strand synthesis system (Invitrogen) was used to generate cDNA according to the manufacturer's directions.
The SYBR green system (Applied Biosystems, Carlsbad, Calif.) was utilized for quantitative PCR (qPCR) using ABI Biosystems. PCR products were then run on a 1% agarose gel, and visualized using ethidium bromide. PCR products were compared to Actb (encoding the β-actin gene) or GAPDH as the controls for gel loading.

A. fumigatus hyphae = assay: In vitro fungal killing assay (hyphal coincubation) with human neutrophils; assay type: cell-based, Aspergillus fumigatus; details: IL-6/23-stimulated, inhibitor 20 μM, FIG. 6F
Excerpt: Aspergillus strains—For cornea infections and in vitro fungal killing assays, an RFP expressing strain of A. fumigatus (Af-dsRed) was used. This strain is gpdA promoter driven to constitutively express monomeric dsRed. For subcutaneous “priming” injections, heat-killed, swollen conidia Aspergillus fumigatus strain Af-BP was used. For the Aspergillus hyphal extract used in ROS assay, A. fumigatus strain Af-BP hyphae were pulverized in liquid nitrogen, filtered through a 30 μm pre-separation filter (Miltenyi Biotec) and protein measured by the BCA method (Pierce). Aspergillus hyphal extracts (AspHE) were stored at −20° C. and used at a final concentration of 1 mg/ml.
A hyphal coincubation assay was used to study the ability of murine and human neutrophils to inhibit A. fumigatus hyphal growth as described. Briefly, 12,500 A. fumigatus dsRed expressing conidia (strain Af-dsRed) per 200 μl Sabouraud dextrose media were added to wells of black-walled 96 well plates with an optically clear bottom (CoStar 3720). After 6 h, the conidia had germinated and the hyphae became adherent to the wells, at which time the medium was removed.
Murine and human neutrophils were incubated with p-STAT3 (20 μM Stattic or 20 μM INC424) or RORγt inhibitors (20 μM SR1001) for 2 h. Then the cells were stimulated with […] of rIL-6 and 2 μg/ml of rIL-23 for 3 h, washed, and 2×10^5 bone marrow-derived murine neutrophils or 10^5 human peripheral blood neutrophils, with or without recombinant IL-17A, were added to each well with growing hyphae. RPMI media was used as positive control (unimpaired growth), and PBS was used as a negative control (no growth (data not shown)). After 16 h the wells were washed with PBS and the dsRed fungal mass was quantified in a 96-well fluorometer at 550/600 nm excitation/emission filter (Synergy HT, Biotek).

O=[N+]([O-])c1ccc2c(c1)S(=O)(=O)C=C2 [Stattic]
RORγt localisation (cytoplasm vs nucleus) (RORγt): only detected in the cytoplasm
IL-17RC expression (IL-17RC): did not inhibit
fluorescent fungal mass (A. fumigatus hyphae; plus rhIL-17A): decreased fungal mass
fluorescent fungal mass (A. fumigatus hyphae; without rhIL-17A): no increase in ROS (FIG. 6E) or decrease in fluorescent fungal mass
